Source: patent US10080743B2, “Isoxazole derivatives as FXR agonists and methods of use thereof” (Enanta Pharmaceuticals, Inc., priority 2016, dated 2018)

Molecular target: T1, human FXR (NR1H4) (Homo sapiens, UniProt Q96RI1)
T1 construct: host or cells: CHO (Chinese hamster ovary) cells
T1 sequence (Q96RI1 1-486): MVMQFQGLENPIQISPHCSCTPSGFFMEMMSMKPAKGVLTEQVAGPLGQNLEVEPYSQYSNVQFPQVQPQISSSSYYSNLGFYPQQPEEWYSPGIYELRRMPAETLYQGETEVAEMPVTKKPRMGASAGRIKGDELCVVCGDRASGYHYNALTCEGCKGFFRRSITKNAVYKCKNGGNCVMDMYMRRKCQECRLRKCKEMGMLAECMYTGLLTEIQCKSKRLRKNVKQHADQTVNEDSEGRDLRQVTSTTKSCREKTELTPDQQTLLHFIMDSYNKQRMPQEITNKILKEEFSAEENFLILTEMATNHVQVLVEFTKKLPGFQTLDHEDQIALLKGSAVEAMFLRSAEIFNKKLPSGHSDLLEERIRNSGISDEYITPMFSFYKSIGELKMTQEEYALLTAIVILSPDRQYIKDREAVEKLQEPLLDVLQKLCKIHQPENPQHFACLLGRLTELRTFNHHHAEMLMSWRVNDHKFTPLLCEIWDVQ
Experiment: Human FXR (NR1H4) Assay (Gal4 promoter driven luciferase reporter transactivation, Indigo Bioscience kit IB00601)
Type: cell-based
Details: for EC50: Human FXR (NR1H4) reporter assay, CHO cells expressing human NR1H4, potency ranges; for Efficacy (%): efficacy normalized to CDCA set as 100%
Source text: Human FXR (NR1H4) Assay Determination of a ligand mediated Gal4 promoter driven transactivation to quantify ligand binding mediated activation of FXR. FXR Reporter Assay kit purchased from Indigo Bioscience (Catalogue number: IB00601) to determine the potency and efficacy of compound developed by Enanta that can induce FXR activation. The principle application of this reporter assay system is to quantify functional activity of human FXR. The assay utilizes non-human mammalian cells, CHO (Chinese hamster ovary) cells engineered to express human NR1H4 protein (referred to as FXR). Reporter cells also incorporate the cDNA encoding beetle luciferase which catalyzes the substrates and yields photon emission. Luminescence intensity of the reaction is quantified using a plate-reading luminometer, Envision. Reporter Cells include the luciferase reporter gene functionally linked to an FXR responsive promoter. Thus, quantifying changes in luciferase expression in the treated reporter cells provides a sensitive surrogate measure of the changes in FXR activity. […] The assay is according to the manufacturer's instructions. […] Retrieve Reporter Cells from −80° C. storage. Perform a rapid thaw of the frozen cells by transferring a 10 ml volume of 37° C. cell recovery medium into the tube of frozen cells. Recap the tube of Reporter Cells and immediately place it in a 37° C. water bath for 5-10 minutes. Retrieve the tube of Reporter Cell Suspension from the water bath. Sanitize the outside surface of the tube with a 70% alcohol swab, and then transfer it into the cell culture hood. Dispense 90 μl of cell suspension into each well of the 96-well Assay Plate. Transfer the plate into 37° C. incubator, allowing the cells adherent to the bottom of the well. Dilute compounds in Dilution Plate (DP), and administrate to cells at Assay Plate (AP). DMSO content of the samples was kept at 0.2%. Cells were incubated for additional 22 hours before luciferase activities were measured. Thirty minutes before intending to quantify FXR activity, remove Detection Substrate and Detection Buffer from the refrigerator and place them in a low-light area so that they may equilibrate to room temperature. Remove the plate's lid and discard all media contents by ejecting it into an appropriate waste container. Gently tap the inverted plate onto a clean absorbent paper towel to remove residual droplets. Cells will remain tightly adhered to well bottoms. Add 100 μl of luciferase detection reagent to each well of the assay plate. Allow the assay plate to rest at room temperature for at least 5 minutes following the addition of LDR. Set the instrument (Envision) to perform a single 5 second “plate shake” prior to reading the first assay well. Read time may be 0.5 second (500 mSec) per well.

Structure (SMILES)	EC50	Efficacy (%)
CC(C)c1onc(-c2c(Cl)cccc2Cl)c1COc1ccc(-c2ccc3c(NC(=O)NS(=O)(=O)C4CC4)cccc3c2)cc1 [Compound 11]	100 to 1000 nM	1.2%
CC(C)c1onc(-c2c(Cl)cccc2Cl)c1COc1ccc(-c2ccc3c(NC(=O)NS(=O)(=O)c4ccccc4)cccc3c2)cc1 [Compound 16]	100 to 1000 nM	117%
CC(C)c1onc(-c2c(Cl)cccc2Cl)c1COc1ccc(-c2ccc3c(C(=O)NS(=O)(=O)N(C)C)cccc3c2)cc1 [Compound 90]	100 to 1000 nM	1.3%
CC(C)c1onc(-c2c(Cl)cccc2Cl)c1COc1ccc(-c2ccc3c(C(=O)O)cccc3c2)cc1 [Compound (1), reference compound]	100 to 1000 nM	220%
